The source of these data is US20120034193A1, “TREATMENT OF NEUROTROPHIC FACTOR MEDIATED DISORDERS” (priority 2009, published 2012).

In series [1] the target is T1, Dopamine D1 (Homo sapiens, UniProt P21728).
T1 construct: host or cells: tissue or cell homogenate, not specified
As to the kind of experiment: Receptor binding assay. The settings on record: sarsasapogenin 10 μM. The protocol: (§1) The receptor binding was investigated using the following method: Sarsasapogenin was incubated with tissue or cell homogenate that expressed the receptor of interest and a known concentration a radiolabelled compound with affinity for the receptor of interest. After the incubation period the non-bound radiolabelled compound was removed and the amount of specific binding was quantified. The amount of specific binding in the presence and absence of sarsasapogenin were compared and the percent inhibition of the binding of the radiolabelled compound by sarsasapogenin was calculated. The source of the receptor, the incubation conditions, the radiolabelled compound used varied depending on each specific assay.

Series [2] addresses T2, Muscarinic M2 (Homo sapiens, UniProt P08172).
T2 construct: host or cells: tissue or cell homogenate, not specified
As to the kind of experiment: Receptor binding assay. To be noted: sarsasapogenin 10 μM. The protocol: as §1

Series [3] has as its target T3, Muscarinic M4 (Homo sapiens, UniProt P08173).
T3 construct: host or cells: tissue or cell homogenate, not specified
As to the kind of experiment: Receptor binding assay. To be noted: sarsasapogenin 10 μM. The protocol:
as §1

Series [4] concerns the target Testosterone (Rattus norvegicus, UniProt P15207). As to the kind of experiment: Receptor binding assay. To be noted: sarsasapogenin 10 μM. Here is the method: as §1
Series [5] has as its target T4, Muscarinic M5 (Homo sapiens, UniProt P08912).
T4 construct: host or cells: tissue or cell homogenate, not specified
The series can be described thus: Receptor binding assay. To be noted: sarsasapogenin 10 μM. The protocol:
as §1

Series [6] concerns the target T5, Muscarinic M1 (Homo sapiens, UniProt P11229).
T5 construct: host or cells: tissue or cell homogenate, not specified
As to the kind of experiment: Receptor binding assay. To be noted: sarsasapogenin 10 μM. The protocol:
as §1

Series [7] addresses T6, Muscarinic M3 (Homo sapiens, UniProt P20309).
T6 construct: host or cells: tissue or cell homogenate, not specified
The series can be described thus: Receptor binding assay. To be noted: sarsasapogenin 10 μM. Here is the method:
as §1

Series [8] has as its target T7, Glucocorticoid (Homo sapiens, UniProt P04150).
T7 construct: host or cells: tissue or cell homogenate, not specified
As to the kind of experiment: Receptor binding assay. To be noted: sarsasapogenin 10 μM. Here is the method: as §1

The target in series [9] is Acetylcholinesterase (Homo sapiens, UniProt P22303). As to the kind of experiment: Enzyme activity assay. It counts as biochemical. The settings on record: sarsasapogenin 10 μM. Here is the method: (§2) The enzyme activity modulation was investigated using the following method: Sarsasapogenin was incubated with each enzyme plus a specific substrate for each enzyme. After the incubation period the reaction was stopped and the reduction of the specific substrate or the increase in a specific product in the absence and presence of sarsasapogenin was measured and the percent inhibition of the reaction in the presence of sarsasapogenin was calculated. The amount of enzyme used, the incubation conditions, the substrate used and the method of quantification varied depending on each specific assay.

Series [10] has as its target Choline acetyltransferase (Homo sapiens, UniProt P28329). The series can be described thus: Enzyme activity assay. It counts as biochemical. The settings on record: sarsasapogenin 100 μM. Here is the method:
as §2

In series [11] the test system is pmn mice. As to the kind of experiment: Progressive motor neuropathy (pmn) mouse model. The class given is in vivo. The protocol:
Affected homozygous +/+ pmn (“pmn mice”) mice were obtained from a breeding colony of extra toe locus(Xt)+/+pmn double heterozygous mice maintained at Neurofit (Illkirch, France). The pmn mice were dosed by oral gavage every day, starting 10 days after birth, just after the initial symptoms of the disease manifest. Sarsasapogenin (0.03, 0.3 and 3 μg/kg/day) was administered to pmn mice as a suspension in oil (10 ml/kg). Electromyographic (EMG) recordings were performed using a standard Neuromatic 2000M electromyograph apparatus in accordance with the guidelines of the American Association of Electrodiagnostic Medicine. Standard behavioural tests (grid, rotarod and hanging tests) performed weekly from day 8 assessed the motor performances of the pmn mice.
The effect of sarsasapogenin on motor function was assessed by recording the amplitude of gastrocnemius evoked motor response (CMAP, an indirect measurement of the number of functional motor neurones).

A short description of series [12]: Long term oral toxicity study, rats. The class given is in vivo. To be noted: high doses, up to 26 week in rats.
Series [13] addresses Nicotinic Acetylcholine α7, Bungarotoxin (Rattus norvegicus, UniProt Q05941). The series can be described thus: Binding assay. To be noted: smilagenin 1 μM.
Series [14] relates to GDNF mRNA. As to the kind of experiment: GDNF mRNA in rat dopaminergic neurones following exposure to MPP+. It counts as cell-based. The settings on record: 10 μM after MPP+ 2 μM 48 h. The protocol:
Rat dopaminergic neurones were prepared using a slightly modified previously described method (Brouard et al., Journal of Neuroscience, 1992, 12, pp. 1409-1415). After 5 days in culture MPP^+ (2 μM), a specific dopaminergic neurotoxin, or vehicle (saline) was added for 48 h. The culture medium was then replaced with fresh medium containing smilagenin (10 μM) or vehicle (DMSO, 0.25%) and the level of GDNF mRNA in the dopaminergic neurones was assessed after 10 min and 2, 24, 48 and 72 h by rt RT-PCR.

For series [15], the system named is Transporter, Monoamine. The series can be described thus: Binding assay. The settings on record: smilagenin 1 μM. Set-up: species or system Rabbit. The protocol: as §1
(§3) Using the same methods as described above, the binding of smilagenin (1 μM) to the receptors listed in Table 2 below, and the effect of smilagenin on the activity of the enzymes listed in Table 2 below, were investigated.

Series [16] can be described thus: Long term oral toxicity study, mice. The settings on record: high doses, up to 52 weeks in mice. The class given is in vivo.
Series [17] deals with GDNF. The series can be described thus: GDNF in culture medium of rat dopaminergic neurones exposed to MPP+. The class given is cell-based. The settings on record: 10 μM from day 6, MPP+ 2 μM day 8 for 48 h; MPP+ alone 2.7 ± 0.5. Here is the method: Rat dopaminergic neurones were prepared using a slightly modified previously described method (Brouard et al., Journal of Neuroscience, 1992, 12, pp. 1409-1415). On day 6 the culture medium was replaced with fresh medium or fresh medium containing smilagenin (10 μM) or vehicle (DMSO, 0.25%). On day 8, MPP^+ (2 μM) or vehicle (saline) was added and 48 h later dopaminergic neurones were stained and the concentration of GDNF in the culture medium, neuronal damage and neurite outgrowth were assessed.

Series [18] is described as follows: Functional assay. The class given is biochemical. To be noted: smilagenin 1 μM. The protocol: as §2, §3
Series [19] relates to dopamine transporter (DAT). The series can be described thus: Striatal DAT level in MPTP-lesioned mice ([I^125]-RTI binding), 60 days. The class given is in vivo, C57b1/6 RJ mice. The settings on record: 10 mg/kg/day oral, control 74.4, MPTP 23.4. Here is the method: Seven-week old male C57b1/6 RJ mice (C57 mice) received daily injections 1-methyl-4-phenyl-1,2,3,6-tetrahydropyridine (MPTP, 25 mg/kg/day, i.p., for 5 consecutive days) and oral administration of smilagenin (10 mg/kg/day) or vehicle (hydroxylpropylmethylcellulose, HPMC 0.5% w/v containing tween-80 0.2% v/v) for 60 days after which time their brains were removed for quantification of striatal levels of GDNF and BDNF using an ELISA and of dopamine transporter (DAT) levels using [I^125]-RTI binding. DAT is a marker for neuronal damage to dopaminergic neurones.

T1 sequence (P21728 whole entry): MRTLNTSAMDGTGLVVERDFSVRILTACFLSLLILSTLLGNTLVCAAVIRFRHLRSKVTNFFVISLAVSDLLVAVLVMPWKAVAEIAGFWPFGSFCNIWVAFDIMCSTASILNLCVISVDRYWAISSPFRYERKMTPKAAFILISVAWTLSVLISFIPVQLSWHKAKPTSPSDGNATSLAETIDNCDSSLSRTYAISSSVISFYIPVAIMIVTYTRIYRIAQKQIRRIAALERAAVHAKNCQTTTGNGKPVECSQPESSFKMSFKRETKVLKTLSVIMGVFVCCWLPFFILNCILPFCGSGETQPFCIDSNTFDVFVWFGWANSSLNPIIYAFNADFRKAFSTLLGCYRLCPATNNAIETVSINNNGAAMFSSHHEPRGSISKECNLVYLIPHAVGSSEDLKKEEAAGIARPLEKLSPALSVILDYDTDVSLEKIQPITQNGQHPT
T3 sequence (P08173 whole entry): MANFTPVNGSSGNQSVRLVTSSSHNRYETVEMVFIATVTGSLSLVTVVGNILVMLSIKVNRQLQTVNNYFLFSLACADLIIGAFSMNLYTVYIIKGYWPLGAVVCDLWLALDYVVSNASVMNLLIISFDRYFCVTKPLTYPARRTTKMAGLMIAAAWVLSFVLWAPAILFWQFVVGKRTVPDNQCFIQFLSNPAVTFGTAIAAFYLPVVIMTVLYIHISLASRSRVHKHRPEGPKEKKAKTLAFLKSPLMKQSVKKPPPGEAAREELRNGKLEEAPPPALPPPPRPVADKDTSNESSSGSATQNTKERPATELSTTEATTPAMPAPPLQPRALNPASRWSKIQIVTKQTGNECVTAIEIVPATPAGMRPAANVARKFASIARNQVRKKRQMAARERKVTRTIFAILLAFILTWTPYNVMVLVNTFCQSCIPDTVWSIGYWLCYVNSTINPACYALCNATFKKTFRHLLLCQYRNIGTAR
Sequence of Testosterone (P15207 whole entry S389L): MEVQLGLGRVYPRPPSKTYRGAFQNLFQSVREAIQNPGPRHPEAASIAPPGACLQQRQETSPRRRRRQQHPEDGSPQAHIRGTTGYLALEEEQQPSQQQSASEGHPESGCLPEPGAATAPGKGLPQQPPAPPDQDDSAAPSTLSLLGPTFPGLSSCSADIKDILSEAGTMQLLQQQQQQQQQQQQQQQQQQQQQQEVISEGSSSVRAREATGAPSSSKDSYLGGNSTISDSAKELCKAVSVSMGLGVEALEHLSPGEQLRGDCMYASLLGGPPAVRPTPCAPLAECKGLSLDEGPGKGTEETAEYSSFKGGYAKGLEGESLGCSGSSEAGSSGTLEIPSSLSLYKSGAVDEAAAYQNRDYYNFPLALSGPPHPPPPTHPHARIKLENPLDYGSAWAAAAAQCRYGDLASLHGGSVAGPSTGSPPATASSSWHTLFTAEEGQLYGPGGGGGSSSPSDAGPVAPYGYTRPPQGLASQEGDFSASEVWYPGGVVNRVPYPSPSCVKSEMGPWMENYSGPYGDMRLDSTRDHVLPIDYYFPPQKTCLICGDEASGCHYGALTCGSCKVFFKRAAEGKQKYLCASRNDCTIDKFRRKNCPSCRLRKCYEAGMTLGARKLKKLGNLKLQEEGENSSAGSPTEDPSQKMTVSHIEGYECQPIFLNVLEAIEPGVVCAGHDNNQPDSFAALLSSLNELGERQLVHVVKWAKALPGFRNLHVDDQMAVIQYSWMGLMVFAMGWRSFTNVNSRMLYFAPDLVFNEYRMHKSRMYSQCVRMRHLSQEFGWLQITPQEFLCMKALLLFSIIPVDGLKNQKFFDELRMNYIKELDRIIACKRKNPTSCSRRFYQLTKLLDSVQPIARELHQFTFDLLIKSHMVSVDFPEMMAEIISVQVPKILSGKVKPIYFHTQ
Sequence of Choline acetyltransferase (P28329 whole entry): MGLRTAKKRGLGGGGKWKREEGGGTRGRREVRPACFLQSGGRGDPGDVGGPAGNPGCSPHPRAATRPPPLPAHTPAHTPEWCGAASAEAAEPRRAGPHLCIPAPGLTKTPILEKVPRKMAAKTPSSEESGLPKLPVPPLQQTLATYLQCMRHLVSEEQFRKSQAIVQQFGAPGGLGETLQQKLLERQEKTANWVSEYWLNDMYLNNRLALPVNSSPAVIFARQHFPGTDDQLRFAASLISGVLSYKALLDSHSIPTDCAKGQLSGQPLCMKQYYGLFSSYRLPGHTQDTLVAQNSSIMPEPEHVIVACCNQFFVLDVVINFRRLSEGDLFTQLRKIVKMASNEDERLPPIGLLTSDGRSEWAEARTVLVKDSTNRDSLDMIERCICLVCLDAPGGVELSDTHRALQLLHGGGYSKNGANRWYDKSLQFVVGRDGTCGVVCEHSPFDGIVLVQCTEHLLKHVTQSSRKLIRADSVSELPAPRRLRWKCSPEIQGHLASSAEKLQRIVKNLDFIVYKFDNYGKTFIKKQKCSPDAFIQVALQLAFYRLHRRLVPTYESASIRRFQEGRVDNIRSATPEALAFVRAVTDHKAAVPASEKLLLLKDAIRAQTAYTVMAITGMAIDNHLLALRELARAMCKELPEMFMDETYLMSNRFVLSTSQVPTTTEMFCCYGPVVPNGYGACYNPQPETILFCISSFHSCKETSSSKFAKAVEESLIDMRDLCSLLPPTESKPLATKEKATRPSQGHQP
T4 sequence (P08912 whole entry): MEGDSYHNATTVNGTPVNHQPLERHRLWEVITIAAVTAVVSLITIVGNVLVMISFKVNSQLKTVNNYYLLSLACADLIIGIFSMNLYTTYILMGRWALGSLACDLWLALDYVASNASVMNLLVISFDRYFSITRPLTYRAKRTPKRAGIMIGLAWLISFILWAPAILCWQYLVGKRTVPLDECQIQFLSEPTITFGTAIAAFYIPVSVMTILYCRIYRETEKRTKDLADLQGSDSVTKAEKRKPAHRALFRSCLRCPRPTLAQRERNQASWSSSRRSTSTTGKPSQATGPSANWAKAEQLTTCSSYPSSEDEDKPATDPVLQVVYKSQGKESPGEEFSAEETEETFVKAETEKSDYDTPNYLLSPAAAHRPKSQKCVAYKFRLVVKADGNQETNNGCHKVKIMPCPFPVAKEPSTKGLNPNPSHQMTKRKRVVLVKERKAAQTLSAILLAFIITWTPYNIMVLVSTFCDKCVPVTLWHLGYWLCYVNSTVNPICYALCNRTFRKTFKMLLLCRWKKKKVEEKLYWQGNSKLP
T2 sequence (P08172 whole entry): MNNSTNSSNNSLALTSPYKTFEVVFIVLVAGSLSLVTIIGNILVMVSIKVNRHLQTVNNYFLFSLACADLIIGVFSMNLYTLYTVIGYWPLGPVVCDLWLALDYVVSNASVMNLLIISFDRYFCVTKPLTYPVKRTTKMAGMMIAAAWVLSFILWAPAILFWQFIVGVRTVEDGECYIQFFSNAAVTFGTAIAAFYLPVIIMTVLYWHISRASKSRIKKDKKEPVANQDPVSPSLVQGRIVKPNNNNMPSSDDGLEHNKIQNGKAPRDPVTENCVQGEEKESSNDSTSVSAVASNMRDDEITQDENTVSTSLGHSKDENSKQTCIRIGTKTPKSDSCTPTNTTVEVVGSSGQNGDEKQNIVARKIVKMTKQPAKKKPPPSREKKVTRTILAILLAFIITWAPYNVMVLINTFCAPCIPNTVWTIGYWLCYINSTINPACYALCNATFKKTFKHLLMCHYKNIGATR
T6 sequence (P20309 whole entry): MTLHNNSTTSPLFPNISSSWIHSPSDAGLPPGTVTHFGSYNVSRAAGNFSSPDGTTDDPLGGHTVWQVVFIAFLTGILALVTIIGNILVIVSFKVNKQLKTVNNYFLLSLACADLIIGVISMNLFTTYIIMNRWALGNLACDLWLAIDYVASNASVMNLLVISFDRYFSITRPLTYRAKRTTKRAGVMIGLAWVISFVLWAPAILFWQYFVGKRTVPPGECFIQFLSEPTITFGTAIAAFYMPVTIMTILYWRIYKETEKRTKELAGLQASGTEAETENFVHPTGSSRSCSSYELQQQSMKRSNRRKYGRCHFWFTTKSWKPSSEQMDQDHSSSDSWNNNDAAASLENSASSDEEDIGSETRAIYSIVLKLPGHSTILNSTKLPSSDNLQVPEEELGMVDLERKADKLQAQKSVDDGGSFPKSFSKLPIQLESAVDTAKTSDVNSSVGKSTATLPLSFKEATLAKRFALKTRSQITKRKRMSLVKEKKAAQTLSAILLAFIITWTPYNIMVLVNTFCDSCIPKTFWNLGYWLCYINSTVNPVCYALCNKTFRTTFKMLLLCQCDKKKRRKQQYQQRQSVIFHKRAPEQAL
T7 sequence (P04150 whole entry): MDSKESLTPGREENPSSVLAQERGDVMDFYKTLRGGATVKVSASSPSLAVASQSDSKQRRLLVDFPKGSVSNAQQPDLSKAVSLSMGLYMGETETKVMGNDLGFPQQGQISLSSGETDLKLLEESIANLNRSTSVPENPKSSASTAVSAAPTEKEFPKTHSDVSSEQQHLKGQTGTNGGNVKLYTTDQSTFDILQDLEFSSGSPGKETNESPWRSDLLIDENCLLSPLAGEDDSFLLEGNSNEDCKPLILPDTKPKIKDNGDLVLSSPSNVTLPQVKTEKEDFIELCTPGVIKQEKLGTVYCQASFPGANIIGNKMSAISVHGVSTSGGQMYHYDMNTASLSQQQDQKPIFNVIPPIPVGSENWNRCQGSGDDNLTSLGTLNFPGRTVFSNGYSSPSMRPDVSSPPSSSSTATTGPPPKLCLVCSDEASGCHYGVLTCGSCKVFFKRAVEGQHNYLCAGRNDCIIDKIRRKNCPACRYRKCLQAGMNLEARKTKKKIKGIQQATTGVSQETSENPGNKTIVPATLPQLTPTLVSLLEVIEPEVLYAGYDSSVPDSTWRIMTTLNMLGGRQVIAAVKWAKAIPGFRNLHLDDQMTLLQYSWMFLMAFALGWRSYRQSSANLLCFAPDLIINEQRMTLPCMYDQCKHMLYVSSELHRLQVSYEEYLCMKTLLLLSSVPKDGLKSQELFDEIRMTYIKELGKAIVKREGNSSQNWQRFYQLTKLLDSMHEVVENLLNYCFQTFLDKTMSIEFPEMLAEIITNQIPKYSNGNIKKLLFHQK

As to `C[C@H]1CC[C@@]2(OC1)O[C@H]1C[C@H]3[C@@H]4CC[C@@H]5C[C@@H](O)CC[C@]5(C)[C@H]4CC[C@]3(C)[C@H]1[C@@H]2C` [Sarsasapogenin, sarsasapogenin], the “Effect (%)” value in [1], in series [2], in [3], in series [4], in series [5] and in series [6] was “NS (NS = No significant response. Significance was taken as ≧30% stimulation or inhibition)” in each case. Moreover, the “Effect (%)” value in series [7], in series [8], in series [9] and in series [10] was “NS (NS = No significant response. Significance was taken as ≧30% stimulation or inhibition)” each time. Moreover, the “Progression of the motor neurone degeneration” value in series [11] (0.03 μg/kg/day oral, lowest tested dosage) was “does not delay the progression of the motor neurone degeneration”. The “Amplitude of CMAP (motor function)” value in [11] (0.3 μg/kg/day oral from day 10 after birth, p<0.001) was “delayed the deterioration of motor function”. Also, the “Increase of survival (lifespan) of pmn mice compared to control” value in [11] (0.3 μg/kg/day oral, after symptoms manifest, p=0.006) is recorded as “up to 62%”. The “Rotarod and grid test performances” value in [11] (0.3 μg/kg/day oral, p=0.02 vs pmn control) was “significantly delayed the deterioration in the rotarod and grid test performances”. Also, the Long term toxicity entry in [12] is “without showing any signs of toxicity or adverse events”.

As for `C[C@@H]1CC[C@@]2(OC1)O[C@H]1C[C@H]3[C@@H]4CC[C@@H]5C[C@@H](O)CC[C@]5(C)[C@H]4CC[C@]3(C)[C@H]1[C@@H]2C` [Smilagenin, smilagenin], the “Effect (%)” value in series [13], in series [15] and in series [18] was “NS (NS = No significant response. Significance was taken as ≧30% stimulation or inhibition)” in each case. Besides, the “Relative amount of GDNF mRNA (% of control at 0.167 h)” value in [14] (smilagenin exposure 0.167 h) is recorded as 119.9 ± 19.8 % of control at 0.167 h; in series [14] (smilagenin exposure 2 h), 581.6 ± 66.3 % of control at 0.167 h; in series [14] (smilagenin exposure 24 h) it was 3319.1 ± 830.3 % of control at 0.167 h; in series [14] (smilagenin exposure 48 h) it was 2185.3 ± 304.1 % of control at 0.167 h; in [14] (smilagenin exposure 72 h), 1413.5 ± 352.1 % of control at 0.167 h. The Long term toxicity entry in series [16] is reported as “without showing any signs of toxicity or adverse events”. In addition, in [17], the “GDNF concentration” value is 6.6 ± 0.7 pg/mL. The “DAT level ([I^125]-RTI binding in the striatum; nCi/g protein)” value in [19] was 69.7 ± 8.8 nCi/g protein.
